The CheMixHub viscosity set
± gives the uncertainty stated by the source.

Experiment: xn = mol fraction of the nth substance listed

CCCCCCCCCCCCCC + CCCCCCCCCCO
100 kPa, x1 = 0.3338
Settings	viscosity [mPa·s]
298.2 K	5.36 ± 0.33
308.2 K	3.89 ± 0.24
318.2 K	2.92 ± 0.18

CC12CC3CC(C)(C1)CC(C)(C3)C2 + CCCCCCCCO
viscosity [mPa·s], 100 kPa
Settings	x1 = 0.1004	x1 = 0.2017	x1 = 0.3008	x1 = 0.3998	x1 = 0.5015	x1 = 0.5993	x1 = 0.7	x1 = 0.7997	x1 = 0.9005
293.15 K	7.78 ± 0.32	6.71 ± 0.27	5.79 ± 0.24	5 ± 0.2	4.3 ± 0.18	3.75 ± 0.15	3.3 ± 0.13	2.98 ± 0.12	2.76 ± 0.11
298.15 K	6.54 ± 0.27	5.65 ± 0.23	4.9 ± 0.2	4.25 ± 0.17	3.71 ± 0.15	3.28 ± 0.13	2.93 ± 0.12	2.66 ± 0.11	2.47 ± 0.1
303.15 K	5.53 ± 0.23	4.81 ± 0.2	4.2 ± 0.17	3.68 ± 0.15	3.24 ± 0.13	2.88 ± 0.12	2.59 ± 0.11	2.37 ± 0.1	2.21 ± 0.09
308.15 K	4.72 ± 0.19	4.14 ± 0.17	3.64 ± 0.15	3.22 ± 0.13	2.85 ± 0.12	2.55 ± 0.1	2.31 ± 0.09	2.13 ± 0.09	2 ± 0.08
313.15 K	4.03 ± 0.16	3.57 ± 0.15	3.18 ± 0.13	2.83 ± 0.12	2.53 ± 0.1	2.28 ± 0.09	2.08 ± 0.08	1.93 ± 0.08	1.82 ± 0.07
318.15 K	3.49 ± 0.14	3.12 ± 0.13	2.79 ± 0.11	2.5 ± 0.1	2.24 ± 0.09	2.03 ± 0.08	1.86 ± 0.08	1.73 ± 0.07	1.65 ± 0.07
323.15 K	3.03 ± 0.12	2.72 ± 0.11	2.45 ± 0.1	2.22 ± 0.09	2 ± 0.08	1.83 ± 0.07	1.69 ± 0.07	1.58 ± 0.06	1.51 ± 0.06

ClC(Cl)=C(Cl)Cl + CCCCCCCO
303.15 K, 101 kPa
Settings	viscosity [mPa·s]
x2 = 0.132	1.08 ± 0.026
x2 = 0.2375	1.267 ± 0.027
x2 = 0.3539	1.511 ± 0.029
x2 = 0.4634	1.807 ± 0.032
x2 = 0.5262	2.016 ± 0.033
x2 = 0.5927	2.259 ± 0.034
x2 = 0.6534	2.548 ± 0.036
x2 = 0.7637	3.149 ± 0.038
x2 = 0.8512	3.725 ± 0.04
x2 = 0.9246	4.255 ± 0.041
